Experimental data published in patent US8613905B2, “Diagnostic agent” (United Arab Emirates University, priority 2007, dated 2013).
“Also recorded” adds a separate entry of the source.

How the values were obtained:
[1] = target: T1, fresh or aggregated α-synuclein (Homo sapiens, UniProt P37840); assay: ELISA: binding of biotinylated peptides to coated α-synuclein; conditions: for binding to coated aggregated α-synuclein: aggregated α-synuclein coated at 500 pmol/well, data not shown; for binding to aggregated versus fresh α-synuclein: range of peptide concentrations, FIG. 3A, B; for binding to aggregated versus fresh α-synuclein / lowest binding concentration detected: α-synuclein coated at 100 pmol/well; for binding to coated fresh and aggregated α-synuclein: α-synuclein coated 20-200 pmol/well, peptides 200 pmol/well, FIG. 2
T1 construct: made in house; host or cells: Escherichia coli
Experimental: Various concentrations of fresh, or aggregated α-synuclein solutions (20-200 pmol/well) were coated on a microtiter plate to dry overnight at 37° C. Aggregated α-synuclein was therefore fixed to the microtiter plate. Aggregated α-synuclein was produced either by aging, dopamine treatment or nitration as indicated on the figures. After washing with PBS containing 0.05% Tween-20 (PBST) and blocking with blocking buffer (PBS containing 2.5% gelatin and 0.05% Tween-20), the biotinylated peptides (200 pmol/well in PBS) or BSA protein (negative control) were added and incubated for 1.5 hrs at room temperature (RT).
Binding of peptides to α-synuclein was quantified using enzyme-linked avidin. Briefly, the plates were washed three times with PBST before the addition of 100 μl/well of extravidin peroxidase diluted at 1:5,000 in blocking buffer. Plates were then washed three times with PBST before the addition of TMB peroxidase substrate. Plates were left for 15 minutes at RT for colour to develop. The reaction was stopped by addition 100 μl/well of 0.5M sulphuric acid and the plates were read at 450 nm in a spectrophotometer.
The effect of peptide concentration on binding to a fixed concentration of α-synuclein was tested by coating microtiter plates as above with 100 or 200 pmol/well of α-synuclein. […] The lowest binding concentration detected for both peptides was 10 pmol/well. […] The lowest binding concentration detected for all three peptides was 10 pmol/well. The binding properties of peptides 6 & 7 to coated fresh or aged α-synuclein were also tested. The binding for peptides 6&7 was detectable when aggregated α-synuclein was coated at 500 pmol/well (data not shown).
The lowest binding concentration detected for dopamine treated α-synuclein was 1 pmol/well. Dopamine treated and nitrated α-synuclein are physiological approximations of the soluble aggregates (or adducts) present during the early stages of synucleinopathic diseases.

[2] = tested on: SH-SY5Y neuroblastoma cells; assay: Uptake of peptides into living neuronal cells (confocal microscopy); type: cell-based, human; conditions: peptides at 50 μM
Experimental: SH-SY5Y or M17 neuroblastoma cells were grown in 15 ml medium in confluent flasks before splitting each suspension into petri dishes and allowing cells to grow on coverslips (˜5×10^3/plate) until the next day. Cells were then incubated with different peptides at 50 μM in growing media (total volume=2 ml). […] After 15 min incubation with respective peptides, the cells were washed 3 times with PBS. 2 ml of fixing solution (4% paraformaldehyde in PBS) was added to the cells which were then incubated for 30 min at room temperature. Fixing buffer was removed and 2 ml of permeabilization buffer (0.2% Triton-X-100 in PBS) was added to the cells for 30 min at room temperature and then removed. 2 ml of Blocking buffer was added, left for 1 hour at RT and then removed before addition of 1:100 FITC [Avidin labelled Fluorescein] (Vector Labs) in blocking buffer. Cells were incubated for 1 hour and then washed twice with PBS 0.05% tween. The coverslips were removed and plated with the cell bearing surface downwards on a glass slide, with the addition of a drop of mounting medium (Dako Cytomation). Cells were then visualized under the confocal microscope.

[3] = target: T2, α-synuclein aggregates in TET-off regulated SH-SY5Y cells expressing A53T (Homo sapiens, UniProt P37840, A53T); assay: Binding to α-synuclein aggregates in cell model; type: cell-based; conditions: 5 μM for 1, 2 & 4 hrs respectively (OR5, 6, 7); FIG. 13
T2 construct: expressed in transfected cells; host or cells: inducible TET-off regulated SH-SY5Y cells (from Dr. Kostas Vekrellis)
Experimental: This example utilises the inducible TET-off regulated SH-SY5Y system from Dr. Kostas Vekrellis (Foundation For Biomedical Research Academy of Athens). These transfected cells have shown to produce both soluble and insoluble aggregates of α-synuclein. The binding of the OR compounds to α-synuclein aggregates was investigated in this cell model.
Cells expressing A53T were grown on coverslips in media without doxycycline and were differentiated for 7 days by adding retinoic acid at 10 μM. On day 6, cells were treated with 1 μM MG132 in media containing retinoic acid for 24 hrs. The biotinylated-OR5, 6 and 7 were added to the media at 5 μM for 1, 2 & 4 hrs respectively at 37° C.
The media for the cells was then changed with fresh media without peptides and then incubated for another 15 mins for the cells to clear up the unbound peptides to α-synuclein aggregates. The cells were fixed and then treated with 0.2% Triton X in PBS for 15 minutes at RT, and after washing with PBS the blocking buffer, 0.5% BSA, was added.
The cells were stained with anti-α-synuclein antibodies (MAb 211 or FL-140 (Santa Cruz Biotechnology)), and with Streptavidin-FITC (Sigma). α-synuclein aggregates were detected after staining with anti-mouse TRITC (Sigma) or anti-rabbit TRITC (Jackson ImmunoResearch Inc.) as appropriate.

aggregated α-synuclein = target: T3, aggregated α-synuclein (Homo sapiens, UniProt P37840); assay: Immunogold assay (EM) on preformed α-synuclein aggregates; type: binding; conditions: 50 μM aggregated α-synuclein on grids; FIG. 6
T3 construct: made in house; host or cells: Escherichia coli
Experimental: Copper grids were placed on 50 μl of 50 μM aggregated α-synuclein for 1 hour and then washed on 50 μl of PBS for 2 minutes before being placed on 50 μl blocking buffer (Vector) for 1 hour 30 minutes. Grids were washed 5 times with PBS (5 minutes each) and then soaked in either […] peptide 5 (in blocking buffer) or blocking buffer only (negative control) for 1 hour 30 minutes at room temperature. Grids were then washed 5 times with PBS (5 minutes each) and soaked in 50 μl of streptavidin-gold label (1:50) in blocking buffer for 30 minutes at room temperature. Grids were again washed 5 times with PBS (5 minutes each) and soaked in 50 μl of uranyl acetate (2% in distilled water) for 1 minute at room temperature before viewing under a transmission electron microscope.

[4] = target: T1, fresh or aggregated α-synuclein; assay: ELISA: coated peptides capturing free α-synuclein; type: binding; conditions: peptides coated 100 pmol/well; α-synuclein 0.001-200 pmol/well; FIG. 4
Experimental: Peptides (100 pmol/well) were coated on a microtiter plate to dry overnight at 37° C. The peptides were therefore fixed to the microtiter plate. After washing with PBS containing 0.05% Tween 20 (PBST) and blocking with blocking buffer (PBS containing 2.5% gelatin and 0.05% Tween 20), various concentrations (0.001-200 pmol/well) of fresh or aggregated α-synuclein solution (produced by aging), or BSA protein (negative control) were added and incubated for 1.5 hrs at RT.
Binding of α-synuclein to peptides was quantified using enzyme-linked antibody specific for α-synuclein. Briefly, the plates were washed three times with PBST before addition of the polyclonal rabbit α-synuclein antibody FL-140 at 1:1000 (in PBS). Plates were then washed three times with PBST before the addition of TMB peroxidase substrate. Plates were left for 15 min at RT for colour to develop. The reaction was stopped by addition 100 μl/well of 0.5M sulphuric acid and the plates were read at 450 nm in a spectrophotometer.

[5] = target: T4, oligomeric α-synuclein (dopamine treated α-synuclein) (Homo sapiens, UniProt P37840); assay: Dot blotting of biotinylated peptides on α-synuclein; type: binding; conditions: FIG. 11
T4 construct: made in house; host or cells: Escherichia coli
Experimental: The binding of the peptides to the oligomeric α-synuclein was also tested using dot blotting. Monomeric α-synuclein (fresh α-synuclein solution) and oligomeric α-synuclein (dopamine treated α-synuclein) was spotted onto a nitrocellulose membrane. After the samples had been dried at room temperature for 2 hrs, the membranes were blocked, and then anti-α-synuclein MAb 211 or biotinylated-peptides were added to the membranes and incubated for 1.5 hr at room temperature. After gentle washing the membranes were treated with Extravidin-peroxidase or anti-mouse-peroxidase as appropriate. The binding of 211 and the peptides was detected using ECL reagents (Pierce). As shown in FIG. 11 the biotinylated-peptides bind specifically to the oligomeric but not monomeric forms of α-synuclein.

Gd-DOTA-r-Sar-vva-Sar-K(biotin)-butadiamine [OR6]
binding to coated aggregated α-synuclein [1]: detectable | incubation after which observed in living cells [2]: 2 h | binding to α-synuclein aggregates formed inside cells [3]: bind to α-synuclein aggregates formed inside cells

Gd-DOTA-r-Sar-vva-Sar-K(biotin)-pentadiamine [OR7]
binding to coated aggregated α-synuclein [1]: detectable | binding to preformed α-synuclein aggregates (streptavidin-gold, EM) (aggregated α-synuclein): bind to preformed α-synuclein aggregates; also recorded: binding | incubation after which observed in living cells [2]: 4 h | binding to α-synuclein aggregates formed inside cells [3]: bind to α-synuclein aggregates formed inside cells

Gd-DOTA-r-Sar-vva-Sar-K(biotin)-rrrrrr [OR5]
binding to aggregated α-synuclein generated by aging, dopamine treatment or nitration ([1]; FIG. 5): highly specific binding to all forms of aggregated α-synuclein | specificity for dopamine treated α-synuclein ([1]; FIG. 5): particularly high specificity | lowest binding concentration detected for dopamine treated α-synuclein ([1]; dopamine treated α-synuclein (soluble aggregates)): 1 pmol/well | binding to preformed α-synuclein aggregates (streptavidin-gold, EM) (aggregated α-synuclein): bind to preformed α-synuclein aggregates; also recorded: binding | capture of aggregated versus fresh α-synuclein by coated peptide [4]: captured more of the aggregated than the fresh α-synuclein | binding to oligomeric versus monomeric α-synuclein (dot blot) [5]: binding of biotinylated-peptide OR5 to α-synuclein oligomers | binding to α-synuclein aggregates formed inside cells [3]: bind to α-synuclein aggregates formed inside cells

Gd-DOTA-rGtvvaGK(biotin)-rrrrrr [OR1]
binding to aggregated versus fresh α-synuclein [1]: more binding to the aggregated than to the fresh α-synuclein | binding to coated fresh and aggregated α-synuclein [1]: high binding to both fresh and aggregated coated α-synuclein | lowest binding concentration detected [1]: 10 pmol/well

Gd-DOTA-rGvvaGK(biotin)-rrrrrr [OR2]
binding to aggregated versus fresh α-synuclein [1]: more binding to the aggregated than to the fresh α-synuclein | binding to coated fresh and aggregated α-synuclein [1]: high binding to both fresh and aggregated coated α-synuclein | lowest binding concentration detected [1]: 10 pmol/well

Gd-DOTA-rrrrrrGtvvaGK(biotin)-r [OR3]
binding to coated fresh and aggregated α-synuclein [1]: more specific binding to the aggregated α-synuclein

Gd-DOTA-rrrrrrGvvaGK(biotin)-r [OR4]
binding to coated fresh and aggregated α-synuclein [1]: more specific binding to the aggregated α-synuclein | capture of aggregated versus fresh α-synuclein by coated peptide [4]: captured more of the aggregated than the fresh α-synuclein
